Reference: patent publication US10314814B2, “Composition comprising 7-hydroxymatairesinol” (LINNEA S.A., priority 2014, dated 2019)

Key:
Assay type in all cases: in vivo, mice (C57BL/6J)
IL-6 and TNF-alfa mRNA = test: Test 7 - inflammatory cytokine mRNA expression; details: summary statement; data in FIGS. 6a-6c
Method: (§1) A group of 140 mice (C57BL/6J) was divided in four sub-groups, group 1 having twenty mice and groups 2 to 4 having forty mice each. Group 1 was fed for 60 days with a low fat (LF) diet (providing 10% calories from fat). Group 2 was fed for 60 days with a high fat (HF) diet (providing 50% calories from fat). Groups 3 and 4 were fed for 60 days with a high fat diet and with 3 mg/kg/day of HMRlignan™ purified HMR (HF+HMR) or 10 mg/kg/day of a total extract of Picea abies (HF+TEP), respectively.
(§2) Mice were kept in animal cabinets maintained at a temperature of 23° C., with natural light/dark cycles. Before treatments, mice were put 5 days on an low fat diet. Mice were fed by gavage daily for 60 days (groups 3 and 4), whilst control groups (1 and 2) received by gavage the carrier only (corn oil). […]
The expression of inflammatory cytokine mRNA was measured in the epidydimal adipose tissue (IL-6 and TNF-alfa) and liver (IL-6) in the four groups of mice according to standard procedures as follows.
(§3) Total RNA was extracted from 10 to 30 mg of tissue using the RNeasy Lipid Tissue Kit (Qiagen, Maryland, USA) and following the manufacture's instruction. […] Quantitative PCR was performed using Assay on Demand kits based on TaqMan chemistry (Applied Biosystems). […]

[1] = Test 5 - homeostasis model assessment of insulin resistance (HOMA-IR); details: HOMA Calculator, glucose and insulin after 6 hours of food withdrawal, high fat diet, 60 days
Method: as §1
(§4) Mice were kept in animal cabinets maintained at a temperature of 23° C., with natural light/dark cycles. Before treatments, mice were put 5 days on an low fat diet. Mice were fed by gavage daily for 60 days (groups 3 and 4), whilst control groups (1 and 2) received by gavage the carrier only (corn oil). The animals were sacrificed by cervical dislocation and the tissues dissected and immediately frozen on dry ice or fixed for histological evaluation.
The homeostatic model assessment of insulin resistance (HOMA-IR) was calculated using glucose and insulin concentrations obtained after 6 hours of food withdrawal, using the HOMA Calculator (Diabetes Trials Unit), the Oxford Centre for Diabetes, Endocrinology and Metabolism: homa.calculator@dtu.ox.ac.uk. Plasma insulin levels were measured with an insulin ELISA kit (Millipore, Mouse Insulin 96 well plate assay; CAT. Nº EZRMI-13K).

[2] = test system: epidydimal adipose tissue; test: Test 2 - histological examination, average adipocyte area
Method: as §1, §4
Fresh epidydimal adipose tissue was fixed in formaldehyde, embedded in paraffin and sliced into 3-μm sections. Sections were stained with hematoxylin, counterstained with eosin, then coverslipped with DPX (BDH, Poole, UK). […]
Average adipocyte area was calculated at ×20 magnification with a dedicated software (Image Pro Plus; Imaging and Computer, Milan). In all samples, at least four different fields of three different tissue sections have been evaluated.

GSTs mRNA; 8OHdG and dGU = test: Test 10 - oxidative stress (GSTs mRNA, 8OHdG/dGU); details: summary statement; data in FIGS. 9, 10
Method: as §1
Mice were kept in animal cabinets maintained at a temperature of 23° C., with natural light/dark cycles. Before treatments, mice were put 5 days on an low fat diet. […]
The expression of GSTs mRNA was measured in the four groups of mice according to standard procedures as follows.
as §3
The expression of 8OHdG and dGU […] was measured in the four groups of mice according to standard procedures as follows.
Genomic DNA was isolated with commercial kit PUREGENE (Gentra Systems MN, USA), following the manufacturer's instructions, and then quantified using Nanodrop spectrophotometer (Thermo Scientific, DE, USA). […]

[3] = test system: ATGL, PLA2g7 and LPL mRNA; test: Test 8 - regulation of genes of the lipid metabolism (epidydimal adipose tissue); details: summary statement; data in FIGS. 7a-7c
Method: as §1, §4
The expression of ATGL, PLA2g7 and LPL mRNA was measured in the epidydimal adipose tissue of the four groups of mice according to standard procedures as follows.
as §3

[4] = test system: hepcidin, ferritin and ferroportin; test: Test 11 - iron metabolism; details: summary statement; data in FIG. 11
Method: as §1, §4
The levels of hepcidin, ferritin and ferroportin were measured in the four groups of mice according to standard procedures as described, for example, in An-Sheng Zhang et al. “Suppression of hepatic hepcidin expression in response to acute iron deprivation is associated with an increase of matriptase-2 protein”, Blood. Feb. 3, 2011; 117(5):1687-1699).

[5] = Test 6 - lipid profiles in blood
Method: as §1, §4
The concentration in blood of cholesterol (Total), cholesterol HDL (HDL), cholesterol LDL (LDL) and triglycerides (TG) were determined according to standard methods, by using an ILab ARIES analyzer (Instrumentation Laboratory Company, Lexington, Mass., USA) and dedicated reagents kits IL Test (Instrumentation Laboratory Company, Lexington, Mass., USA)

[6] = Test 1 - fat mass and lean mass quantification (EchoMRI), body weight; details: summary statement; data in FIGS. 1 and 2
Method: as §1, §2
EchoMRI provides the most precise measurements of whole body composition parameters (total body fat and lean mass), in alive mice without the need of anesthesia or sedation and in less than 1 minute. Alterations in mouse whole body composition were assessed as a result of exposure to modified diets. […]
The EchoMRI-100™ QNMR system was housed in a dedicated area to minimize the entry of disease or contaminants. […] The output information was expressed as lean tissue mass and fat mass in grams. […]

PPARg and TFEB mRNA = test: Test 9 - regulation of genes of the lipid metabolism (liver); details: summary statement; data in FIGS. 8a, 8b
Method: as §1, §4
The expression of PPARg and TFEB mRNA was measured in the liver of the four groups of mice according to standard procedures as follows.
as §3

liver tissue = test: Test 3 - liver steatosis (histology); details: high fat diet, 60 days; HMR 3 mg/kg/day, TEP 10 mg/kg/day; compared with HF group 2 (micro- and macro vesicular steatosis)
Method: as §1, §4
Fresh liver tissue was fixed in formaldehyde, embedded in paraffin and sliced into 3-μm sections. Sections were stained with hematoxylin, counterstained with eosin, then coverslipped with DPX (BDH, Poole, UK). Images acquisition was obtained by a digital camera (Nikon Digital Camera DMX 1200). A sample image of the four groups was illustrated in FIG. 3.

[7] = Test 4 - glucose tolerance test; details: summary statement; data in FIG. 4
Method: as §1, §4
For glucose tolerance tests animals were fasted overnight for 12 hours and blood sample were obtained from the tail vein. […] The glucose concentration was evaluated with standard method (Benjamin B. Whiddon and Richard D. Palmiter. Ablation of Neurons Expressing Melanin-Concentrating Hormone (MCH) in Adult Mice Improves Glucose Tolerance Independent of MCH Signaling. J Neurosci. 2013 Jan. 30; 33(5): 2009-2016).

With COc1cc(CC2C(=O)OCC2C(O)c2ccc(O)c(OC)c2)ccc1O (stereo not drawn) [HMR, 7-hydroxymatairesinol] the “concentration of pro-inflammatory cytokines in the epidydimal adipose tissue and liver” value (IL-6 and TNF-alfa mRNA) was “reduce”, the “IR: Insulin resistance” value ([1]; HF control 6.97, LF 0.69) was 2.04 and the “% S: Insulin sensitivity” value ([1]; HF control 15.0, LF 121.0) was 31.9. The “% B: Steady state beta cell function” value ([1]; HF control 101.0, LF 64.4) was 55.0, the “Average area (adipocyte)” value ([2]; epidydimal adipose tissue, high fat diet, 60 days, daily gavage, HMR 3 mg/kg/day, TEP 10 mg/kg/day, HF control 20832, LF 9275, data only indicative, group 3 vs group 2 statistically different) was 18478 μm^2 and the “number and area of adipocytes” value ([2]; summary statement) was “able to reduce”. The cellular oxidative stress (GSTs mRNA; 8OHdG and dGU) was “able to reduce”, the “regulation of genes of the lipid metabolism in the epidydimal adipose tissue (ATGL mRNA, PLA2g7 gene, LPL gene)” value [3] was “able to contribute to the regulation” and the iron metabolism [4] was “regulate”. The “cholesterol LDL (LDL) concentration in blood” value ([5]; high fat diet, 60 days, HF control 56, LF 18) was 51, the “cholesterol HDL (HDL) concentration in blood” value ([5]; high fat diet, 60 days, HF control 133, LF 79) was 129 and the “triglycerides (TG) concentration in blood” value ([5]; high fat diet, 60 days, HF control 153, LF 88) was 140. For the same molecule, the “cholesterol (Total) concentration in blood” value ([5]; high fat diet, 60 days, HMR 3 mg/kg/day, TEP 10 mg/kg/day, HF control 220, LF 114) was 209, the dyslipidemia ([5]; summary statement) was “able to reduce” and the obesity [6] was “able to reduce”. The “regulation of genes of the lipid metabolism in the liver (PPARg gene, TFEB gene)” value (PPARg and TFEB mRNA) was “able to contribute to the regulation”, the “Liver histology (steatosis)” value (liver tissue) was “some vacuoles, much less than group 2” and the glycaemia [7] was “able to reduce”.
